# According to US7456214B2, “Chromene-containing compounds with anti-tubulin and vascular targeting activity” (Baylor University, priority 2004, dated 2008):
# Structures can show the parent of a compound that is named as a salt.
# Assays:
# purified tubulin = assay: In vitro inhibition of tubulin polymerization; type: biochemical, bovine; conditions: 1.5 mg/ml tubulin, 15 min preincubation at 37° C., GTP-induced, 350 nm
# Protocol: IC50 values for tubulin polymerization were determined according to a previously described procedure (Bai et al., Cancer Research, 1996). Purified tubulin is obtained from bovine brain cells as previously described (Hamel and Lin, Biochemistry, 1984). Various amounts of inhibitor were preincubated for 15 minutes at 37° C. with purified tubulin. After the incubation period, the reaction was cooled and GTP was added to induce tubulin polymerization. Polymerization was then monitored in a Gilford spectrophotometer at 350 nm. The final reaction mixtures (0.25 ml) contained 1.5 mg/ml tubulin, 0.6 mg/ml microtubule-associated proteins (MAPs), 0.5 mM GTP, 0.5 mM MgCl2, 4% DMSO and 0.1M 4-morpholineethanesulfonate buffer (MES, pH 6.4). IC50 is the amount of inhibitor needed to inhibit tubulin polymerization 50% with respect to the amount of […] that occurs in the absence of inhibitor.
# P388 leukemia cell lines = assay: In vitro cytotoxicity, P388 leukemia cells (SRB); type: cell-based; conditions: for IC50: P388, 48 hours incubation, read-out: ED50 for P-388 Cell Line
# Protocol: (§1) Newly prepared compounds were evaluated for cytotoxic activity against a variety of cell lines derived from human tumors using an assay system similar to the National Cancer Institute procedure previously described (Monks et al, J. Natl. Cancer Inst., 1991). Briefly, the cell suspensions, diluted according to the particular cell type and the expected target cell density (5,000-40,000 cells per well based on cell growth characteristics), were added by pipet (100 μl) to 96-well microtiter plates. Inoculates were allowed a preincubation time of 24-28 hours at 37° C. for stabilization. Incubation with the inhibitor compounds lasted for 48 hours in […] atmosphere and 100% humidity. Determination of cell growth was performed by in situ fixation of cells, followed by staining with a protein-binding dye sulforhodamine B (SRB), which binds to the basic amino acids of cellular macromolecules. The solubilized stain was measured spectrophotometrically.
# (§2) Several compounds were evaluated for cytotoxic activity against […] P388 leukemia cell lines. The effective dose or ED50 value (defined as the effective dosage required to inhibit 50% of cell growth) was measured. These and additional compounds were evaluated in terms of growth inhibitory activity against several other human cancer cell lines including: central nervous system (“CNS”, SF-268), pancreas (BXPC-3), non-small cell lung cancer (“lung-NCS”, NCI-H460), breast (MCF-7), colon (KM20L2), ovarian (OVCAR-3), and prostate (DU-145). The growth inhibition GI50(defined as the dosage required to inhibit tumor cell growth by 50%) is listed for each cell line.
# SF-268 = assay: Growth inhibition, SF-268 CNS cancer cells (SRB); type: cell-based; conditions: Homo sapiens, 48 hours incubation, read-out: GI50 for Cell Line SF-268
# Protocol: as §1, §2
# BXPC-3 = assay: Growth inhibition, BXPC-3 pancreas cancer cells (SRB); type: cell-based; conditions: Homo sapiens, 48 hours incubation, read-out: GI50 for Cell Line BXPC-3
# Protocol: as §1, §2
# NCI-H460 = assay: Growth inhibition, NCI-H460 non-small cell lung cancer cells (SRB); type: cell-based; conditions: Homo sapiens, 48 hours incubation, read-out: GI50 for Cell Line NCI-H460
# Protocol: as §1, §2
# MCF-7 = assay: Growth inhibition, MCF-7 breast cancer cells (SRB); type: cell-based; conditions: Homo sapiens, MCF7, 48 hours incubation, read-out: GI50 for Cell Line MCF-7
# Protocol: as §1, §2
# KM20L2 = assay: Growth inhibition, KM20L2 colon cancer cells (SRB); type: cell-based; conditions: Homo sapiens, KM-20L2, 48 hours incubation, read-out: GI50 for Cell Line KM20L2
# Protocol: as §1, §2
# DU-145 = assay: Growth inhibition, DU-145 prostate cancer cells (SRB); type: cell-based; conditions: Homo sapiens, 48 hours incubation, read-out: GI50 for Cell Line DU-145
# Protocol: as §1, §2
# [1] = test system: MHEC-5T hemangioendothelioma tumor; assay: Inhibition of tumor blood flow, Fluorescent Bead Assay; type: in vivo, SCID mice; conditions: 24 hours post-treatment, vessel area per tumor tissue area as percentage of control
# Protocol: The antivascular effects of the chromene phosphate prodrug were assessed in tumor-bearing mice using a Fluorescent Bead Assay. A MHEC-5T hemangioendothelioma tumor model was established by subcutaneous injection of 0.5×10^6 cultured transformed cell murine myocardial vascular endothelial cell line (“MHEC5-T”) cells into the right flank of Fox Chase CB-17 Severe Combined Immunodeficient (“SCID”) mice. […] At 24 hours post-treatment, mice were injected intravenously with 0.25 ml of diluted FluoSphere beads (1:6 in physiological saline) in the tail vein, sacrificed after 3 minutes, and tumor was excised for cryosectioning. Tumor cryosections at a thickness of 8 um were directly examined using quantitative fluorescent microscopy. Blood vessels were indicated by blue fluorescence from injected beads. For quantification, image analysis of 3 sections from three tumors treated in each group were examined and vascular shutdown was expressed as vessel area (mm^2) per tumor tissue area (mm^2) as a percentage of the control (“% VAPM”).
Compound,IC50 (purified tubulin),GI50 (SF-268),GI50 (BXPC-3),GI50 (NCI-H460),GI50 (MCF-7),GI50 (KM20L2),GI50 (DU-145),IC50 (P388 leukemia cell lines),ED50 for P-388 Cell Line (P388 leukemia cell lines; 48 hours incubation),% VAPM at 10 mg/kg dose ([1]; 10 mg/kg single i.p.),% VAPM at 100 mg/kg dose ([1]; 100 mg/kg single i.p.)
"COc1cc(C(=O)C2=Cc3ccc(O)c(O)c3OC2)cc(OC)c1OC [Compound 17, 3-(3′,4′,5′-Trimethoxybenzoyl)-7,8-dihydroxy-2H-chromene]",10 to 20 µM,0.32 µg/mL,3 µg/mL,0.34 µg/mL,0.48 µg/mL,6.3 µg/mL,0.23 µg/mL,1.8 µg/mL,–,–,–
"COc1cc(C(=O)C2=Cc3cccc(OP(=O)(O)O)c3OC2)cc(OC)c1OC [Compound 16, 3-(3′,4′,5′-Trimethoxybenzoyl)-8-phosphate-2H-chromene disodium salt]",–,0.058 µg/mL,1.6 µg/mL,0.12 µg/mL,0.45 µg/mL,5.4 µg/mL,0.046 µg/mL,0.019 µg/mL,–,–,–
"COc1cc(C(=O)C2=Cc3ccc(OP(=O)(O)O)c(OP(=O)(O)O)c3OC2)cc(OC)c1OC [Compound 18, 3-(3′,4′,5′-Trimethoxybenzoyl)-7,8-diphosphate-2H-chromene tetrasodium salt]",> 40 µM,3.4 µg/mL,> 10 µg/mL,3.5 µg/mL,4.2 µg/mL,> 10 µg/mL,2.2 µg/mL,0.56 µg/mL,–,–,–
"COc1cc(C(=O)C2=Cc3cccc(O)c3OC2)cc(OC)c1OC [Compound 15, 3-(3′,4′,5′-Trimethoxybenzoyl)-8-hydroxy-2H-chromene]",2 to 4 µM,0.048 µg/mL,2.4 µg/mL,0.044 µg/mL,0.21 µg/mL,4 µg/mL,0.026 µg/mL,0.093 µg/mL,–,–,–
"COc1ccc2c(c1O)OCC(C(=O)c1cc(OC)c(OC)c(OC)c1)=C2 [Compound 5, 3-(3′,4′,5′-Trimethoxybenzoyl)-7-methoxy-8-hydroxy-2H-chromene]",1 to 2 µM,–,–,–,0.055 µg/mL,–,–,–,–,80%,90%

# Now from value to compound, other results behind:
IC50 (purified tubulin),GI50 (SF-268),GI50 (BXPC-3),GI50 (NCI-H460),GI50 (MCF-7),GI50 (KM20L2),GI50 (DU-145),Compound,IC50 (P388 leukemia cell lines),ED50 for P-388 Cell Line (P388 leukemia cell lines; 48 hours incubation),% VAPM at 10 mg/kg dose ([1]; 10 mg/kg single i.p.),% VAPM at 100 mg/kg dose ([1]; 100 mg/kg single i.p.)
20 µM,0.5 µg/mL,0.38 µg/mL,0.4 µg/mL,0.56 µg/mL,0.4 µg/mL,0.42 µg/mL,"COc1cc2c(cc1OC)OCC(C(=O)c1cc(OC)c(OC)c(OC)c1)=C2 [Compound 13, 3-(3′,4′,5′-Trimethoxybenzoyl)-6,7-dimethoxy-2H-chromene]",2.5 µg/mL,–,–,–
4 to 10 µM,–,–,–,0.27 µg/mL,–,–,"COc1ccc2c(c1)OCC(C(=O)c1cc(OC)c(OC)c(OC)c1)=C2 [Compound 8, 3-(3′,4′,5′-Trimethoxybenzoyl)-7-methoxy-2H-chromene]",–,2.04 µg/mL,–,–
20 µM,0.4 µg/mL,0.43 µg/mL,0.4 µg/mL,0.47 µg/mL,0.37 µg/mL,0.24 µg/mL,"COc1cc(OC)c2c(c1)OCC(C(=O)c1cc(OC)c(OC)c(OC)c1)=C2 [Compound 14, 3-(3′,4′,5′-Trimethoxybenzoyl)-5,7-dimethoxy-2H-chromene]",16.3 µg/mL,–,–,–
> 40 µM,> 10 µg/mL,7.1 µg/mL,5.5 µg/mL,7.3 µg/mL,> 10 µg/mL,3.9 µg/mL,"COc1cc2c(cc1O)C=C(C(=O)c1cc(OC)c(OC)c(OC)c1)CO2 [Compound 9, 3-(3′,4′,5′-Trimethoxybenzoyl)-6-hydroxy-7-methoxy-2H-chromene]",28.2 µg/mL,–,–,–
20 µM,0.34 µg/mL,0.46 µg/mL,0.37 µg/mL,0.48 µg/mL,0.4 µg/mL,0.16 µg/mL,"COc1cc(C(=O)C2=Cc3ccc(OC)c(OC)c3OC2)cc(OC)c1OC [Compound 12, 3-(3′,4′,5′-Trimethoxybenzoyl)-7,8-dimethoxy-2H-chromene]",0.41 µg/mL,–,–,–
